Measurements reported in patent US20080167246A1, “Ophthalmic and Contact Lens Solutions Containing Peptides as Preservative” (BioConcept Laboratories, priority 2003, published 2008).
Non-standard residues stand in square brackets, D forms with d. Residues, ends and D or L forms follow the SMILES beside them. No end group written: not given here.

What was measured:
Format in all cases: cell-based
[1] = system: Staphylococcus aureus (ATCC 6538); test: Disinfection Efficacy antimicrobial assay (ISO 14729), S. aureus; conditions: for biocidal effect on S. aureus (in words): 100 ug/mL
Experimental: (§1) Peptides were tested using a conventional Disinfection Efficacy antimicrobial assay (ISO 14729), commonly used in evaluating biocidal efficacy of preservatives for use in contact lens care solutions. Briefly, a known concentration of organisms are inoculated into the test solution, and allowed to incubate for a given amount of time, after which they are neutralized to inactivate the preservative. Samples are serially diluted and plated in duplicate onto petri plates onto which growth medium is poured. The plates are incubated at 35° C. (bacteria) or 25° C. (yeast and molds) for 48 hours. The average number of colony forming units is determined on countable plates (the dilution at which between 30 to 300 cfu/plate are observed, except when colonies are observed only on the −1 dilution plates). The log reduction resulting from exposure to the test solution is calculated based on the growth of positive controls plated simultaneously. Recovery controls, to confirm that the test solution is neutralized, and viability controls are also plated.
(§2) Method: The Disinfection Efficacy test was used with the following organisms: Staphylococcus aureus (ATCC 6538), Pseudomonas aeruginosa (ATCC 9027), Serratia marcesens (ATCC 13880), Candida albicans (ATCC 10231), and Fusarium solani (ATCC 36031). The peptides were diluted in water at a concentration of 100 ug/mL (adjusted for purity). Organism cultures were prepared to result in an inoculum concentration between 10^7 and 10^8 cfu/mL. The test solutions were inoculated for a 1 hour and a 3 hour exposure period, neutralized with DEB with 0.1% SLS added, and plated in duplicate.
(§3) Method: The Disinfection Efficacy test was used as in experiment 2 using Staphylococcus aureus and Pseudomonas aeruginosa. The peptides were diluted in water at concentrations of 100, 33.3, 10, 3.33, and 1 ug/mL. The test solutions were inoculated for 1 hour, neutralized, and plated in duplicate.

[2] = system: Pseudomonas aeruginosa (ATCC 9027); test: Disinfection Efficacy antimicrobial assay (ISO 14729), P. aeruginosa; conditions: for biocidal effect on P. aeruginosa (in words): 100 ug/mL; for lowest concentration resulting in complete kill of P. aeruginosa: 1 hour, tested at 100, 33.3, 10, 3.33 and 1 ug/mL
Experimental: as §1, §2, §3

[3] = system: Serratia marcesens (ATCC 13880); test: Disinfection Efficacy antimicrobial assay (ISO 14729), S. marcescens; conditions: Exp. 2, 1 hour exposure; for biocidal effect on S. marcescens (in words): 100 ug/mL
Experimental: as §1, §2

[4] = system: Candida albicans (ATCC 10231); test: Disinfection Efficacy antimicrobial assay (ISO 14729), C. albicans; conditions: Exp. 2, 1 hour exposure; for biocidal effect on C. albicans (in words): 100 ug/mL
Experimental: as §1
Method: Candida albicans (ATCC 10231) stock cultures were incubated and prepared to result in cell suspensions containing between 10^7 and 10^8 cfu/mL. The Disinfection Efficacy test, as described above, was used, with the following modification: Since the standard Dey-Engley broth used to neutralize preservatives was not necessarily expected to neutralize the peptide, 0.1% sodium laurel sulfate (SLS) was added to the neutralization solution. Controls confirmed that this was effective in neutralizing the peptide test solution.
as §2, with “The test solutions were inoculated for a 1 hour and a 3 hour exposure period, neutralized with DEB with 0.1% SLS added, and plated in duplicate.” left out

[5] = system: Fusarium solani (ATCC 36031); test: Disinfection Efficacy antimicrobial assay (ISO 14729), F. solani; conditions: Exp. 2, 1 hour exposure; for biocidal effect on F. solani (in words): 100 ug/mL
Experimental: as §1, §2

[6] = system: Staphylococcus aureus, Pseudomonas aeruginosa, Serratia marcesens, Candida albicans, Fusarium solani; test: Disinfection Efficacy test, all 5 organisms of Experiment 2; conditions: Exp. 2; 100 ug/mL, one hour exposure
Experimental: as §1
Method: The Disinfection Efficacy test was used with the following organisms: Staphylococcus aureus (ATCC 6538), Pseudomonas aeruginosa (ATCC 9027), Serratia marcesens (ATCC 13880), Candida albicans (ATCC 10231), and Fusarium solani (ATCC 36031). The peptides were diluted in water at a concentration of 100 ug/mL (adjusted for purity). […]

[7] = Exp. 2, 100 ug/mL in water, 1 hour exposure
[8] = Exp. 3, Conc. 3.33 μg/mL, T = 1 hr
[9] = Exp. 3, Conc. 33 μg/mL, T = 1 hr
[10] = Exp. 3, Conc. 100 μg/mL, T = 1 hr

Compound | biocidal effect on S. aureus (in words) ([1]; Exp. 2, 1 hour exposure) | biocidal effect on P. aeruginosa (in words) ([2]; Exp. 2, 1 hour exposure) | biocidal effect on S. marcescens (in words) [3] | biocidal effect on C. albicans (in words) [4] | biocidal effect on F. solani (in words) [5] | lowest concentration resulting in complete kill of P. aeruginosa ([2]; Exp. 3) [µg/mL] | average cfu/mL [2, 8] [cfu/mL] | average cfu/mL [2, 9] [cfu/mL] | average cfu/mL [2, 10] [cfu/mL] | other results
C[C@@H](N)C(=O)N[C@H](CCCCN)C(=O)N[C@H](CCCNC(=N)N)C(=O)N[C@H](Cc1c[nH]cn1)C(=O)N[C@H](Cc1c[nH]cn1)C(=O)NCC(=O)N[C@H](Cc1ccc(O)cc1)C(=O)N[C@H](CCCCN)C(=O)N[C@H](CCCNC(=N)N)C(=O)N[C@H](CCCCN)C(=O)N[C@H](Cc1ccccc1)C(=O)N[C@H](Cc1c[nH]cn1)C(N)=O [P-113D] (H-[dA][dK][dR][dH][dH]G[dY][dK][dR][dK][dF][dH]-NH2; N-terminus and C-terminus assumed) | no effect | effective | no effect | effective | effective |  |  |  |  | 
FAKKFAKKFKKFAKKFAKFAFAF [D2A21] |  |  |  |  |  | 1 | 0.00E+00 | 0.00E+00 | 0.00E+00 | average cfu/mL [1, 7]: 0.00E+00 cfu/mL; concentration achieving complete kill of S. aureus ([1]; Exp. 3, 1 hour, tested at 100, 33.3, 10, 3.33 and 1 ug/mL): 3.33 µg/mL; average cfu/mL [1, 8]: 0.00E+00 cfu/mL; average cfu/mL [1, 9]: 0.00E+00 cfu/mL; average cfu/mL [1, 10]: 0.00E+00 cfu/mL; average cfu/mL [2, 7]: 0.00E+00 cfu/mL; average cfu/mL ([2]; Exp. 3, Conc. 1 μg/mL, T = 1 hr): 0.00E+00 cfu/mL; average cfu/mL ([2]; Exp. 3, Conc. 10 μg/mL, T = 1 hr): 0.00E+00 cfu/mL; average cfu/mL ([3]; 100 ug/mL in water): 0.00E+00 cfu/mL; average cfu/mL ([4]; 100 ug/mL in water): 0.00E+00 cfu/mL; average cfu/mL ([5]; 100 ug/mL in water): 0.00E+00 cfu/mL; kill of all 5 organisms (in words) [6]: complete kill
AKRHHGYKRKFH-NH2 (C-terminus assumed) [P-113] | no effect | effective | no effect | effective | effective | 3.33 | 5.00E+00 | 0.00E+00 | 0.00E+00 | effectiveness against S. aureus (in words) ([1]; Exp. 3, 1 to 100 ug/mL, 1 hour): not effective
